Measured values as given in ChEMBL document CHEMBL5715954, “Silencing c-Myc translation as a therapeutic strategy through targeting PI3Kδ and CK1ε in hematological malignancies” (Blood, 2017).

Legend:
Design in all cases: scale not given: the % may be the effect or the level left
[1] = biological target: Tyrosine-protein kinase BTK (Homo sapiens) (UniProt Q06187); test: Inhibition of human BTK assessed as enzyme activity at 1 uM using poly[Glu:Tyr] (4:1) as substrate preincubated for 20 mins followed by [gamma-33P]-ATP addition and measured after 120 mins by radiometric Hot-SpotSM Kinase assay relative to control
Sequence of Tyrosine-protein kinase BTK (Homo sapiens) (Q06187 whole entry): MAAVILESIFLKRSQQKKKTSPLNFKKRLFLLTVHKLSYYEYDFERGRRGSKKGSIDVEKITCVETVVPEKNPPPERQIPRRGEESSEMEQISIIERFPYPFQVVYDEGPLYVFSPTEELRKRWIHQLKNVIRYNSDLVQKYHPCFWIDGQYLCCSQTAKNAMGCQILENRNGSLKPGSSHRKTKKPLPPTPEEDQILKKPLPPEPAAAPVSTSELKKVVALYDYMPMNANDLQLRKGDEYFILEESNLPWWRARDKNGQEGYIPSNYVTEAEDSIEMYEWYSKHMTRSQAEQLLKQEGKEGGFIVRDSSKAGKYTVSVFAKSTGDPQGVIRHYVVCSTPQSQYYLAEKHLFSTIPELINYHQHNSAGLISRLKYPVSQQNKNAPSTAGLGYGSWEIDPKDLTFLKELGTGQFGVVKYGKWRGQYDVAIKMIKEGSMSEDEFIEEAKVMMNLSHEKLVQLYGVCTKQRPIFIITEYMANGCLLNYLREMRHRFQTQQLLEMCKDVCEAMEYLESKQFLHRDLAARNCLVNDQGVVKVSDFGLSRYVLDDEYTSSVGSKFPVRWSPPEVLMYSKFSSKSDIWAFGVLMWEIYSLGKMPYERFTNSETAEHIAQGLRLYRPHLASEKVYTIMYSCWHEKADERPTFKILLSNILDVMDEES

[2] = biological target: Calcium/calmodulin-dependent protein kinase type 1B (Homo sapiens) (UniProt Q6P2M8); test: Inhibition of human CAMK1b assessed as enzyme activity at 1 uM using KKALRRQETVDAL as substrate preincubated for 20 mins followed by [gamma-33P]-ATP addition and measured after 120 mins by radiometric Hot-SpotSM Kinase assay relative to control
Sequence of Calcium/calmodulin-dependent protein kinase type 1B (Homo sapiens) (Q6P2M8 whole entry): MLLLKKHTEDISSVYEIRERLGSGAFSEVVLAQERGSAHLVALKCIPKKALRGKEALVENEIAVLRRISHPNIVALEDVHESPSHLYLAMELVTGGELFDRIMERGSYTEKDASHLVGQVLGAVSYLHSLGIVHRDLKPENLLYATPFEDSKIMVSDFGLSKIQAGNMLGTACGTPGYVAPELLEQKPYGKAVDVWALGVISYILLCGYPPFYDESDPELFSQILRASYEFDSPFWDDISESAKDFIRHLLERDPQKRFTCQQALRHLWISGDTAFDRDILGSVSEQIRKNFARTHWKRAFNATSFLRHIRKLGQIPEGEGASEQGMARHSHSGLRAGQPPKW

[3] = biological target: Calcium/calmodulin-dependent protein kinase type II subunit gamma (Homo sapiens) (UniProt Q13555); test: Inhibition of human CAMK2g assessed as enzyme activity at 1 uM using KKLNRTLSFAEPG as substrate preincubated for 20 mins followed by [gamma-33P]-ATP addition and measured after 120 mins by radiometric Hot-SpotSM Kinase assay relative to control
[4] = biological target: CDK18/Cyclin Y (Homo sapiens) (UniProt Q07002+Q8ND76); test: Inhibition of human CDK18/cyclin Y assessed as enzyme activity at 1 uM using RB Protein as substrate preincubated for 20 mins followed by [gamma-33P]-ATP addition and measured after 120 mins by radiometric Hot-SpotSM Kinase assay relative to control; assay type: protein-complex assay
[5] = biological target: Serine/threonine-protein kinase MARK2 (Homo sapiens) (UniProt Q7KZI7); test: Inhibition of human PAR-1Ba assessed as enzyme activity at 1 uM using KKKVSRSGLYRSPSMPENLNRPR as substrate preincubated for 20 mins followed by [gamma-33P]-ATP addition and measured after 120 mins by radiometric Hot-SpotSM Kinase assay relative to control
[6] = biological target: T1, Mitogen-activated protein kinase kinase kinase 3 (Homo sapiens) (UniProt Q99759); test: Inhibition of human MEKK3 assessed as enzyme activity at 1 uM using myelin basic protein as substrate preincubated for 20 mins followed by [gamma-33P]-ATP addition and measured after 120 mins by radiometric Hot-SpotSM Kinase assay relative to control
T1 sequence (whole entry): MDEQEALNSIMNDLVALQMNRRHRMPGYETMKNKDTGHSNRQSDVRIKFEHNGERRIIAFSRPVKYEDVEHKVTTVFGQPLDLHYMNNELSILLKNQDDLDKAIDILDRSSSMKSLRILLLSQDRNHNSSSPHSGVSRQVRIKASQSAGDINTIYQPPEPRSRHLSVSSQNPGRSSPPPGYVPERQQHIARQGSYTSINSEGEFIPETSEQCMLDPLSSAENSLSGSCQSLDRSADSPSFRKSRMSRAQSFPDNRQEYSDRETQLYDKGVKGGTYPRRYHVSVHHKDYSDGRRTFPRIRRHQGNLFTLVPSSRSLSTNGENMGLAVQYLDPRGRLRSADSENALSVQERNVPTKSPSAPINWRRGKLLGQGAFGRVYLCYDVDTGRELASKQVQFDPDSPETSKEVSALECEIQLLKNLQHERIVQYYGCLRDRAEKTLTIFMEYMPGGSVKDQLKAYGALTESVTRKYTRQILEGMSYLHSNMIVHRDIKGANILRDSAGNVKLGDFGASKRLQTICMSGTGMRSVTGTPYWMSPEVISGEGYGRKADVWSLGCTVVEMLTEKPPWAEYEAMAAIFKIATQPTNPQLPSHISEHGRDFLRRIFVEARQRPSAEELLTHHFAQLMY

[7] = biological target: MAP kinase-interacting serine/threonine-protein kinase 2 (Homo sapiens) (UniProt Q9HBH9); test: Inhibition of human MNK2 assessed as enzyme activity at 1 uM using myelin basic protein as substrate preincubated for 20 mins followed by [gamma-33P]-ATP addition and measured after 120 mins by radiometric Hot-SpotSM Kinase assay relative to control
[8] = biological target: RAF proto-oncogene serine/threonine-protein kinase (Homo sapiens) (UniProt P04049); test: Inhibition of human RAF1 assessed as enzyme activity at 1 uM using MEK1 (K97R) as substrate preincubated for 20 mins followed by [gamma-33P]-ATP addition and measured after 120 mins by radiometric Hot-SpotSM Kinase assay relative to control
Sequence of RAF proto-oncogene serine/threonine-protein kinase (Homo sapiens) (P04049 whole entry): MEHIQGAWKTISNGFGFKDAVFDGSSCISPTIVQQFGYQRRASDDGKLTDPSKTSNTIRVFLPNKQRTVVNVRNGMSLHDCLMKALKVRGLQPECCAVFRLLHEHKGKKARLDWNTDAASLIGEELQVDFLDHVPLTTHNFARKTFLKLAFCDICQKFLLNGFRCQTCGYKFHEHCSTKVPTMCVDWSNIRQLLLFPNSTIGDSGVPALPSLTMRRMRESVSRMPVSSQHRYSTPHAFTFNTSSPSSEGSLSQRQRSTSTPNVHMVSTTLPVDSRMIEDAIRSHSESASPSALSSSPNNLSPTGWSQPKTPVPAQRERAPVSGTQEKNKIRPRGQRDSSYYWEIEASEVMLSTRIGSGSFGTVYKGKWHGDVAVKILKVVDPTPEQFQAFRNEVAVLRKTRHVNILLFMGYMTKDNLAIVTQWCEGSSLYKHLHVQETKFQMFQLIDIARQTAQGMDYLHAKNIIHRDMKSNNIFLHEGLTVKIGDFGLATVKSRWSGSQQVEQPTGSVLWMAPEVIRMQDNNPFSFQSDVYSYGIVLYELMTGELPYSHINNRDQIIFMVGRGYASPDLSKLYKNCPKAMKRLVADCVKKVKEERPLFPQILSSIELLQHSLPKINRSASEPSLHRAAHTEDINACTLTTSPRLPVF

[9] = biological target: Receptor-interacting serine/threonine-protein kinase 3 (Homo sapiens) (UniProt Q9Y572); test: Inhibition of human RIPK3 assessed as enzyme activity at 1 uM using myelin basic protein as substrate preincubated for 20 mins followed by [gamma-33P]-ATP addition and measured after 120 mins by radiometric Hot-SpotSM Kinase assay relative to control
[10] = biological target: Ribosomal protein S6 kinase alpha-3 (Homo sapiens) (UniProt P51812); test: Inhibition of human RSK2 assessed as enzyme activity at 1 uM using KKLNRTLSVA as substrate preincubated for 20 mins followed by [gamma-33P]-ATP addition and measured after 120 mins by radiometric Hot-SpotSM Kinase assay relative to control
[11] = biological target: Ribosomal protein S6 kinase alpha-2 (Homo sapiens) (UniProt Q15349); test: Inhibition of human RSK3 assessed as enzyme activity at 1 uM using KKLNRTLSVA as substrate preincubated for 20 mins followed by [gamma-33P]-ATP addition and measured after 120 mins by radiometric Hot-SpotSM Kinase assay relative to control
Sequence of Ribosomal protein S6 kinase alpha-2 (Homo sapiens) (Q15349 whole entry): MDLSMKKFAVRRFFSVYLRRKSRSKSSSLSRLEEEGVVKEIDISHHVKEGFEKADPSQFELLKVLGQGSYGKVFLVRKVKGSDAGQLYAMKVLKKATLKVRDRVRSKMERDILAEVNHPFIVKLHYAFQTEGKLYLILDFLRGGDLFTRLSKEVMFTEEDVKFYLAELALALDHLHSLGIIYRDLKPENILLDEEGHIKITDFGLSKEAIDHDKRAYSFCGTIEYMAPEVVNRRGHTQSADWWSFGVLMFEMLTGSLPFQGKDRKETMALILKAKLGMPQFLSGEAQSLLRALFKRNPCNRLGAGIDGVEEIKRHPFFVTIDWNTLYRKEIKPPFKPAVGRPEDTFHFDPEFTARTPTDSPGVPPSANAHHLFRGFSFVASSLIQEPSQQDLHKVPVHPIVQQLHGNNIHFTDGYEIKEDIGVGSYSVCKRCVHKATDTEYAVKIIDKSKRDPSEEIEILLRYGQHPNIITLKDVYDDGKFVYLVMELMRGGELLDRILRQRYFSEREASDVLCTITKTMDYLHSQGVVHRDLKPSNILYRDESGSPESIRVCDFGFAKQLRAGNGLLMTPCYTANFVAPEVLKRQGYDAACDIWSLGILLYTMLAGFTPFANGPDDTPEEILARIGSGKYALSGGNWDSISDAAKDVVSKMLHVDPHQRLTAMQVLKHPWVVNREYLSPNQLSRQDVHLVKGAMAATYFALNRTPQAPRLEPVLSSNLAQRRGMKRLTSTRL

[12] = biological target: Serine/threonine-protein kinase 32C (Homo sapiens) (UniProt Q86UX6); test: Inhibition of human STK32C assessed as enzyme activity at 1 uM using myelin basic protein as substrate preincubated for 20 mins followed by [gamma-33P]-ATP addition and measured after 120 mins by radiometric Hot-SpotSM Kinase assay relative to control
Sequence of Serine/threonine-protein kinase 32C (Homo sapiens) (Q86UX6 whole entry): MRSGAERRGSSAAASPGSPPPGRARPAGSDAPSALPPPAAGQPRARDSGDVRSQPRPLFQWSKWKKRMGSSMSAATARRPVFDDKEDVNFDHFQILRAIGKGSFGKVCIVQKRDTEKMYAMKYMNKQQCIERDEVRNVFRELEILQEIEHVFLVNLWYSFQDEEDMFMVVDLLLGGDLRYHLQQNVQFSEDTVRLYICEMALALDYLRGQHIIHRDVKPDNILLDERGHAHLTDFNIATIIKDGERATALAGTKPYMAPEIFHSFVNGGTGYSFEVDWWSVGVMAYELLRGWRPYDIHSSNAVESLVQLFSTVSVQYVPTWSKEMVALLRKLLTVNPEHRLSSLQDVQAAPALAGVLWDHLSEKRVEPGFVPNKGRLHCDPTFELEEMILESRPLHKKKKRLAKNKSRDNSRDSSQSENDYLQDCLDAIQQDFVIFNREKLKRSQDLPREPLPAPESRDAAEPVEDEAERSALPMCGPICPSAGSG

[13] = biological target: Serine/threonine-protein kinase WNK3 (Homo sapiens) (UniProt Q9BYP7); test: Inhibition of human WNK3 assessed as enzyme activity at 1 uM using myelin basic protein as substrate preincubated for 20 mins followed by [gamma-33P]-ATP addition and measured after 120 mins by radiometric Hot-SpotSM Kinase assay relative to control
Sequence of Serine/threonine-protein kinase WNK3 (Homo sapiens) (Q9BYP7 whole entry): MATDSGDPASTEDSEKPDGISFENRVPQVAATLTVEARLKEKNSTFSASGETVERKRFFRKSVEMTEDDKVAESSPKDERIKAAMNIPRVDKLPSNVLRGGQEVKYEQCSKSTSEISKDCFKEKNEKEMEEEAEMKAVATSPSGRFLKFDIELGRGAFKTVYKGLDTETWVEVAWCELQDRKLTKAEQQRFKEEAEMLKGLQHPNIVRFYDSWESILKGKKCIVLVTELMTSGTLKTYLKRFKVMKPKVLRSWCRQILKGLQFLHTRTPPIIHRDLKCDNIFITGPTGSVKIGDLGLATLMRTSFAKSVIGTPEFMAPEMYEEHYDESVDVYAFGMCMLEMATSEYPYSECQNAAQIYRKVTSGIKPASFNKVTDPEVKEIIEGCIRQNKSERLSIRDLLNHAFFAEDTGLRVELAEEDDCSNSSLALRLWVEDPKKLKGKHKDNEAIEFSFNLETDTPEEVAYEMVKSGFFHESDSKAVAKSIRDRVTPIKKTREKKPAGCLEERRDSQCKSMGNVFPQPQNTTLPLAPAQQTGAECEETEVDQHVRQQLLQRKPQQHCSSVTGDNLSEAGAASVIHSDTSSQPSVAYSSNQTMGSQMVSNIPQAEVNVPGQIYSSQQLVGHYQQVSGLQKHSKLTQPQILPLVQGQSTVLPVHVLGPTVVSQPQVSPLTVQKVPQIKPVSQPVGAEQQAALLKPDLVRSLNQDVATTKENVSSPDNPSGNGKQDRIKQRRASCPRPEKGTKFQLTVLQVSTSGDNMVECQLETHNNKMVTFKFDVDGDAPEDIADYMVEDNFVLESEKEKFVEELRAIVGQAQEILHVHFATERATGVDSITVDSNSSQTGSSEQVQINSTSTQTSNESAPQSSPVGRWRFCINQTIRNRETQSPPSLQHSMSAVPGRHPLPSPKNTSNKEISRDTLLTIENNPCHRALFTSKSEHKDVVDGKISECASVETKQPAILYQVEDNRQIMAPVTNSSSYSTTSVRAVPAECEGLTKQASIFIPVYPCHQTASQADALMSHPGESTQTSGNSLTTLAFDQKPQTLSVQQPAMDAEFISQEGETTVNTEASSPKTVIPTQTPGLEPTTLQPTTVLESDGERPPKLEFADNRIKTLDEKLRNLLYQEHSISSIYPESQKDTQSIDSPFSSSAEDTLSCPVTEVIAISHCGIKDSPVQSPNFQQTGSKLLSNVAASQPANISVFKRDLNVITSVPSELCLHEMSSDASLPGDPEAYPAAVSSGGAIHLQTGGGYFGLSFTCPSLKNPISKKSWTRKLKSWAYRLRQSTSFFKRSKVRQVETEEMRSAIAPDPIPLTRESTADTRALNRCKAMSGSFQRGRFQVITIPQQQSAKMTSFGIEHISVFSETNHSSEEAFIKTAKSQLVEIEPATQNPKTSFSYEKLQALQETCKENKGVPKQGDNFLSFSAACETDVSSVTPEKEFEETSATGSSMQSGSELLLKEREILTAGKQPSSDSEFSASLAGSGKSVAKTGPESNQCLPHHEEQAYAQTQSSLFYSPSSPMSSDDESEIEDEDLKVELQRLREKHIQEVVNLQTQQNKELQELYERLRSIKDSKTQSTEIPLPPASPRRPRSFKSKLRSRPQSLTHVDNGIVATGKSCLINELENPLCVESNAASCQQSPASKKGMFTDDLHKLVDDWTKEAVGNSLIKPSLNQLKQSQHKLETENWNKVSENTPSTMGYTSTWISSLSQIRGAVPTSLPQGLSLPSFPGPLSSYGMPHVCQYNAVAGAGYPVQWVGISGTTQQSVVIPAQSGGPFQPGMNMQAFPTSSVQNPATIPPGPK

Compound | Activity [1] [%] | Activity [2] [%] | Activity [3] [%] | Activity [4] [%] | Activity [5] [%] | Activity [6] [%] | Activity [7] [%] | Activity [8] [%] | Activity [9] [%] | Activity [10] [%] | Activity [11] [%] | Activity [12] [%] | Activity [13] [%]
CC[C@H](Nc1ncnc2[nH]cnc12)c1nc2cccc(F)c2c(=O)n1-c1ccccc1 | 97.3 | 103 | 91 | 85.7 | 94.3 | 102 | 105 | 95.3 | 102 | 101 | 98.3 | 105 | 86.4
C[C@H](Nc1ncnc2nc[nH]c12)c1cc2cccc(Cl)c2c(=O)n1-c1ccccc1 | 98.7 | 102 | 92.9 | 100 | 95.8 | 91.8 | 99.9 | 93.5 | 97.6 | 97.7 | 94.1 | 94.3 | 86.8
CC(C)Oc1ccc(-c2nn([C@@H](C)c3oc4ccc(F)cc4c(=O)c3-c3cccc(F)c3)c3ncnc(N)c23)cc1F [UMBRALISIB] | 96.8 | 100 | 91.5 | 94.6 | 99.7 | 102 | 102 | 93.1 | 107 | 106 | 101 | 111 | 82.7
